Assays:
[1] = tested on: histone deacetylase (HDAC); assay: HDAC inhibition screening assay using an aminocoumarin derivative of an omega-acetylated lysine as substrate; type: biochemical; conditions: compound concentration 10 nM
Description: To measure the inhibitory properties of the compounds of the invention, a screening assay was performed using an aminocoumarin derivative of an omega-acetylated lysine as substrate for the enzmye. This assay has been described in detail in the literature (Hoffmann, K., et al., Nucleic Acids Res. 27 (1999)2057-2058). Using the protocol described therein, there was measured the inhibitory effect of the compounds at a concentration of 10 nM.

SMILES | Inhibitory effect at 10 nM in % [1] | melting point
O=C(CCCCCOc1ccc2c(c1)[nH]c1ccccc12)NO [Example 6, 6-(9H-Carbazol-2-yloxy)-hexanoic Acid Hydroxyamide] | 80% | 192 °C
O=C(CCCCCCCOc1ccc2c(c1)C(O)c1ccccc1-2)NO (racemic) [Example 2, rac-8-(9-Hydroxy-9H-fluoren-2-yloxy)-octanoic Acid Hydroxyamide] | 79% | 
O=C(CCCCCCOc1ccc2c(c1)[nH]c1ccccc12)NO [Example 5, 7-(9H-Carbazol-2-yloxy)-heptanoic Acid Hydroxyamide] | 100% | 198 °C
O=C(CCCCCCCOc1cccc2[nH]c3ccccc3c12)NO [Example 4, 8-(9H-Carbazol-4-yloxy)-octanoic Acid Hydroxyamide] | 97% | 

Further lines, results first:

Inhibitory effect at 10 nM in % [1] | melting point | SMILES
62% |  | O=C(CCCCCCCOc1ccc2c(c1)C(=O)c1ccccc1CO2)NO [Example 1, 8-(11-Oxo-6,1 1-Dihydro-dibenzo[b,e]oxepin-2-yloxy)-octanoic Acid Hydroxyamide]
69% |  | O=C(CCCCOc1ccc2c(c1)[nH]c1ccccc12)NO [Example 7, 5-(9H-Carbazol-2-yloxy)-pentanoic Acid Hydroxyamide]
86% |  | O=C(CCCCCCCOc1ccc2c(c1)[nH]c1ccccc12)NO [Example 3, 8-(9H-Carbazol-2-yloxy)-octanoic Acid Hydroxyamide]

— patent US6512123B2, “Tricyclic alkylhydroxamate derivatives” (Hoffmann-La Roche Inc., priority 2001, dated 2003)
